Assay results published in PubChem BioAssay (NCI).
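Dose response: 5 concentrations. Exposure: 48 h. Format: 96-well plates. Endpoint: linear interpolation; highest concentration if not reached. GI50 marks 50% less growth. TGI: total growth inhibition.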

Tests used:
Experiment in all cases: NCI-60 cell line screen, 48 h
786-0 renal = tested on: 786-0 renal
A498 renal = tested on: A498 renal
A549 NSCLC = tested on: A549 NSCLC
ACHN renal = tested on: ACHN renal
BT-549 breast = tested on: BT-549 breast
CAKI-1 renal = tested on: CAKI-1 renal
CCRF-CEM leukemia = tested on: CCRF-CEM leukemia
COLO 205 colon = tested on: COLO 205 colon
DU-145 prostate = tested on: DU-145 prostate
EKVX NSCLC = tested on: EKVX NSCLC
HCC-2998 colon = tested on: HCC-2998 colon
HCT-116 colon = tested on: HCT-116 colon
HCT-15 colon = tested on: HCT-15 colon
HL-60(TB) leukemia = tested on: HL-60(TB) leukemia
HOP-62 NSCLC = tested on: HOP-62 NSCLC
HOP-92 NSCLC = tested on: HOP-92 NSCLC
HS 578T breast = tested on: HS 578T breast
HT29 colon = tested on: HT29 colon
IGROV1 ovarian = tested on: IGROV1 ovarian
K-562 leukemia = tested on: K-562 leukemia
KM12 colon = tested on: KM12 colon
LOX IMVI melanoma = tested on: LOX IMVI melanoma
M14 melanoma = tested on: M14 melanoma
MALME-3M melanoma = tested on: MALME-3M melanoma
MCF7 breast = tested on: MCF7 breast
MDA-MB-231 breast = tested on: MDA-MB-231 breast
MDA-MB-435 = tested on: MDA-MB-435
MDA-MB-468 breast = tested on: MDA-MB-468 breast
MOLT-4 leukemia = tested on: MOLT-4 leukemia
NCI-H226 lung = tested on: NCI-H226 lung
NCI-H23 lung = tested on: NCI-H23 lung
NCI-H460 lung = tested on: NCI-H460 lung
NCI-H522 lung = tested on: NCI-H522 lung
NCI/ADR-RES ovarian = tested on: NCI/ADR-RES ovarian
OVCAR-3 ovarian = tested on: OVCAR-3 ovarian
OVCAR-4 ovarian = tested on: OVCAR-4 ovarian
OVCAR-5 ovarian = tested on: OVCAR-5 ovarian
OVCAR-8 ovarian = tested on: OVCAR-8 ovarian
PC-3 prostate = tested on: PC-3 prostate
RPMI-8226 leukemia = tested on: RPMI-8226 leukemia
RXF 393 renal = tested on: RXF 393 renal
SF-268 CNS = tested on: SF-268 CNS
SF-295 CNS = tested on: SF-295 CNS
SF-539 CNS = tested on: SF-539 CNS
SK-MEL-2 melanoma = tested on: SK-MEL-2 melanoma
SK-MEL-28 melanoma = tested on: SK-MEL-28 melanoma
SK-MEL-5 melanoma = tested on: SK-MEL-5 melanoma
SK-OV-3 ovarian = tested on: SK-OV-3 ovarian
SN12C renal = tested on: SN12C renal
SNB-19 CNS = tested on: SNB-19 CNS
SNB-75 CNS = tested on: SNB-75 CNS
SR leukemia = tested on: SR leukemia
SW-620 colon = tested on: SW-620 colon
T-47D breast = tested on: T-47D breast
TK-10 renal = tested on: TK-10 renal
U251 CNS = tested on: U251 CNS
UACC-257 melanoma = tested on: UACC-257 melanoma
UACC-62 melanoma = tested on: UACC-62 melanoma
UO-31 renal = tested on: UO-31 renal

Compound: O=C(Nc1ccc(Cl)c([N+](=O)[O-])c1)Nc1ccc(Cl)c([N+](=O)[O-])c1
- GI50 (786-0 renal): 2.91 µM
- TGI (786-0 renal): 11.9 µM
- GI50 (A498 renal): 3.33 µM
- TGI (A498 renal): 10.8 µM
- GI50 (A549 NSCLC): 4.29 µM
- TGI (A549 NSCLC): 16.9 µM
- GI50 (ACHN renal): 2.69 µM
- TGI (ACHN renal): 7.44 µM
- GI50 (BT-549 breast): 2.79 µM
- TGI (BT-549 breast): 9.94 µM
- GI50 (CAKI-1 renal): 2.98 µM
- TGI (CAKI-1 renal): 10.5 µM
- GI50 (CCRF-CEM leukemia): 2.95 µM
- TGI (CCRF-CEM leukemia): 11.3 µM
- GI50 (COLO 205 colon): 2.69 µM
- TGI (COLO 205 colon): 6.97 µM
- GI50 (DU-145 prostate): 3.66 µM
- TGI (DU-145 prostate): 13.8 µM
- GI50 (EKVX NSCLC): 3.56 µM
- TGI (EKVX NSCLC): 13.1 µM
- GI50 (HCC-2998 colon): 3.32 µM
- TGI (HCC-2998 colon): 11.9 µM
- GI50 (HCT-116 colon): 3.19 µM
- TGI (HCT-116 colon): 9.34 µM
- GI50 (HCT-15 colon): 2.83 µM
- TGI (HCT-15 colon): 10.9 µM
- GI50 (HL-60(TB) leukemia): 2.72 µM
- TGI (HL-60(TB) leukemia): 7.11 µM
- GI50 (HOP-62 NSCLC): 4.63 µM
- TGI (HOP-62 NSCLC): 17.2 µM
- GI50 (HOP-92 NSCLC): 2.28 µM
- TGI (HOP-92 NSCLC): 6.53 µM
- GI50 (HS 578T breast): 5.46 µM
- TGI (HS 578T breast): 31.3 µM
- GI50 (HT29 colon): 3.34 µM
- TGI (HT29 colon): 13.3 µM
- GI50 (IGROV1 ovarian): 3.02 µM
- TGI (IGROV1 ovarian): 9.14 µM
- GI50 (K-562 leukemia): 2.8 µM
- TGI (K-562 leukemia): 14.1 µM
- GI50 (KM12 colon): 3.49 µM
- TGI (KM12 colon): 12.6 µM
- GI50 (LOX IMVI melanoma): 3.13 µM
- TGI (LOX IMVI melanoma): 9.64 µM
- GI50 (M14 melanoma): 4.04 µM
- TGI (M14 melanoma): 15 µM
- GI50 (MALME-3M melanoma): 3.02 µM
- TGI (MALME-3M melanoma): 11.8 µM
- GI50 (MCF7 breast): 2.31 µM
- TGI (MCF7 breast): 7.43 µM
- GI50 (MDA-MB-231 breast): 3.05 µM
- TGI (MDA-MB-231 breast): 8.99 µM
- GI50 (MDA-MB-435): 3.71 µM
- TGI (MDA-MB-435): 12.8 µM
- GI50 (MDA-MB-468 breast): 2.2 µM
- TGI (MDA-MB-468 breast): 6.48 µM
- GI50 (MOLT-4 leukemia): 3.12 µM
- TGI (MOLT-4 leukemia): 14.6 µM
- GI50 (NCI-H226 lung): 2.92 µM
- TGI (NCI-H226 lung): 10.1 µM
- GI50 (NCI-H23 lung): 2.36 µM
- TGI (NCI-H23 lung): 6.35 µM
- GI50 (NCI-H460 lung): 3.22 µM
- TGI (NCI-H460 lung): 10.6 µM
- GI50 (NCI-H522 lung): 2.34 µM
- TGI (NCI-H522 lung): 5.81 µM
- GI50 (NCI/ADR-RES ovarian): 3.2 µM
- TGI (NCI/ADR-RES ovarian): 11.2 µM
- GI50 (OVCAR-3 ovarian): 2.6 µM
- TGI (OVCAR-3 ovarian): 7.91 µM
- GI50 (OVCAR-4 ovarian): 2.95 µM
- TGI (OVCAR-4 ovarian): 11.3 µM
- GI50 (OVCAR-5 ovarian): 7.12 µM
- TGI (OVCAR-5 ovarian): 20.7 µM
- GI50 (OVCAR-8 ovarian): 4.06 µM
- TGI (OVCAR-8 ovarian): 14.7 µM
- GI50 (PC-3 prostate): 2.83 µM
- TGI (PC-3 prostate): 10.9 µM
- GI50 (RPMI-8226 leukemia): 2.27 µM
- TGI (RPMI-8226 leukemia): 6.32 µM
- GI50 (RXF 393 renal): 11.3 µM
- TGI (RXF 393 renal): 24.8 µM
- GI50 (SF-268 CNS): 3.87 µM
- TGI (SF-268 CNS): 15.8 µM
- GI50 (SF-295 CNS): 2.46 µM
- TGI (SF-295 CNS): 7.83 µM
- GI50 (SF-539 CNS): 4.88 µM
- TGI (SF-539 CNS): 17.3 µM
- GI50 (SK-MEL-2 melanoma): 2.9 µM
- TGI (SK-MEL-2 melanoma): 9.11 µM
- GI50 (SK-MEL-28 melanoma): 3.78 µM
- TGI (SK-MEL-28 melanoma): 14.4 µM
- GI50 (SK-MEL-5 melanoma): 2.94 µM
- TGI (SK-MEL-5 melanoma): 10.5 µM
- GI50 (SK-OV-3 ovarian): 4.04 µM
- TGI (SK-OV-3 ovarian): 15.5 µM
- GI50 (SN12C renal): 2.92 µM
- TGI (SN12C renal): 9.19 µM
- GI50 (SNB-19 CNS): 2.68 µM
- TGI (SNB-19 CNS): 10.5 µM
- GI50 (SNB-75 CNS): 3.82 µM
- TGI (SNB-75 CNS): 19.5 µM
- GI50 (SR leukemia): 3.57 µM
- TGI (SR leukemia): 20.3 µM
- GI50 (SW-620 colon): 3.43 µM
- TGI (SW-620 colon): 13 µM
- GI50 (T-47D breast): 2.2 µM
- TGI (T-47D breast): 9.1 µM
- GI50 (TK-10 renal): 4.31 µM
- TGI (TK-10 renal): 16.6 µM
- GI50 (U251 CNS): 3.02 µM
- TGI (U251 CNS): 12.2 µM
- GI50 (UACC-257 melanoma): 4.81 µM
- TGI (UACC-257 melanoma): 17.2 µM
- GI50 (UACC-62 melanoma): 2.74 µM
- TGI (UACC-62 melanoma): 10.6 µM
- GI50 (UO-31 renal): 2.82 µM
- TGI (UO-31 renal): 10.1 µM
